Results taken from patent US9198433B2, “Substituted benzene fungicides” (E I DU PONT DE NEMOURS AND COMPANY, priority 2007, dated 2015).
Marks after values point to notes of the source that are not given here.

Tests used:
Assay type in all cases: in vivo
Septoria nodorum = test: Test C: wheat glume blotch, preventive spray on wheat seedlings, disease rating
Description: (§1) The test compounds were first dissolved in acetone in an amount equal to 3% of the final volume and then suspended at the desired concentration (in ppm) in acetone and purified water (50/50 mix) containing 250 ppm of the surfactant Trem® 014 (polyhydric alcohol esters). The resulting test suspensions were then used in Tests A-L. Spraying a 200 ppm test suspension to the point of run-off on the test plants was the equivalent of an application rate of 500 g/ha. The test suspension was sprayed to the point of run-off on wheat seedlings. […] A dash (-) indicates no test results. All results are for 200 ppm except where followed by an “*”, which indicates 40 ppm or “**”, which indicates 50 ppm.

[1] = tested on: Erysiphe graminis f. sp. tritici; test: Test A: wheat powdery mildew, preventive spray on wheat seedlings, disease rating
Description: as §1

Alternaria solani = test: Test H: tomato early blight, preventive spray on tomato seedlings, disease rating
Description: (§2) The test compounds were first dissolved in acetone in an amount equal to 3% of the final volume and then suspended at the desired concentration (in ppm) in acetone and purified water (50/50 mix) containing 250 ppm of the surfactant Trem® 014 (polyhydric alcohol esters). The resulting test suspensions were then used in Tests A-L. Spraying a 200 ppm test suspension to the point of run-off on the test plants was the equivalent of an application rate of 500 g/ha. The test suspension was sprayed to the point of run-off on tomato seedlings. […] A dash (-) indicates no test results. All results are for 200 ppm except where followed by an “*”, which indicates 40 ppm or “**”, which indicates 50 ppm.

Botrytis cinerea = test: Test F: tomato Botrytis, preventive spray on tomato seedlings, disease rating
Description: as §2

[2] = tested on: Puccinia recondita f. sp. tritici; test: Test B: wheat leaf rust, preventive spray on wheat seedlings, disease rating
Description: as §1

Septoria tritici = test: Test D: wheat leaf blotch, preventive spray on wheat seedlings, disease rating
Description: The test compounds were first dissolved in acetone in an amount equal to 3% of the final volume and then suspended at the desired concentration (in ppm) in acetone and purified water (50/50 mix) containing 250 ppm of the surfactant Trem® 014 (polyhydric alcohol esters). The resulting test suspensions were then used in Tests A-L. Spraying a 200 ppm test suspension to the point of run-off on the test plants was the equivalent of an application rate of 500 g/ha. The test suspension was sprayed to the point of run-off on wheat seedlings. The following day the seedlings were inoculated with a spore suspension of Septoria tritici (the causal agent of wheat leaf blotch) and incubated in a saturated atmosphere at 24° C. for 48 h, and then moved to a growth chamber at 20° C. for 19 days, after which time disease ratings were made. […] A dash (-) indicates no test results. All results are for 200 ppm except where followed by an “*”, which indicates 40 ppm or “**”, which indicates 50 ppm.

[3] = 200 ppm, 100 = 100% disease control, 0 = no control relative to controls

SMILES	Percentage Disease Control, Test C (Septoria nodorum; 40 ppm (*))	Percentage Disease Control, Test A ([1]; 40 ppm (*))	Percentage Disease Control, Test H (Alternaria solani; 40 ppm (*))	Percentage Disease Control, Test F (Botrytis cinerea; 200 ppm) [%]	Percentage Disease Control, Test B ([2]; 40 ppm (*))	Percentage Disease Control, Test D (Septoria tritici; 40 ppm (*))	Percentage Disease Control, Test H (Alternaria solani; 200 ppm) [%]	Percentage Disease Control, Test F (Botrytis cinerea; 40 ppm (*))	also measured
COC(=O)NCc1cc(-c2ncn(-c3cccc(C(F)(F)F)c3)n2)ccc1Cl [Cmpd 89]	100* %	100* %	89* %	0	100* %	100* %	–	–	–
COC(=O)NCc1cc(-n2cnc(-c3cccc(C(F)(F)F)c3)n2)ccc1Cl [Cmpd 120]	–	98* %	–	0	–	94* %	0	–	Percentage Disease Control, Test C (Septoria nodorum; 200 ppm): 0%; Percentage Disease Control, Test B ([2]; 200 ppm): 79%
COC(=O)NCc1cc(-c2ccn(-c3ccccc3C(F)(F)F)n2)ccc1Cl [Cmpd 51]	98* %	97* %	60* %	–	99* %	100* %	–	0* %	–
COC(=O)NCc1cc(-c2ccn(Cc3cccc([N+](=O)[O-])c3)n2)ccc1Cl [Cmpd 73]	96* %	74* %	14* %	–	98* %	98* %	–	95* %	–
COC(=O)NCc1cc(-c2ccn(Cc3cc(C(F)(F)F)ccc3Cl)n2)ccc1Cl [Cmpd 53]	94* %	98* %	92* %	–	99* %	99* %	–	0* %	–
COC(=O)NCc1cc(C(C)=NOC[Si](C)(C)c2ccccc2)ccc1Cl [Compound 15]	100* %	100* %	–	0	100* %	100* %	33	–	–
COC(=O)NCc1cc(-c2ccn(Cc3ccc(OC(F)(F)F)cc3)n2)ccc1Cl [Cmpd 66]	100* %	99* %	96* %	–	100* %	100* %	–	0* %	–
COC(=O)NCc1cc(-n2ccc(-c3cccc(Br)c3)n2)ccc1Cl [Cmpd 121]	100* %	98* %	90* %	0	98* %	99* %	–	–	–
COC(=O)NCc1cc(-c2ccn(-c3ccc(C#N)cc3)n2)ccc1Cl [Cmpd 114]	–	–	–	0	–	–	0	–	Percentage Disease Control, Test C (Septoria nodorum; 200 ppm): 100%; Percentage Disease Control, Test A ([1]; 200 ppm): 93%; Percentage Disease Control, Test B ([2]; 200 ppm): 99%; Percentage Disease Control, Test D (Septoria tritici; 200 ppm): 100%
COC(=O)NCc1cc(-c2ccn(-c3ccc(C(C)C)cc3)n2)ccc1Cl [Cmpd 110]	100* %	100* %	–	–	100* %	97* %	85	96* %	–
COC(=O)NCc1cc(-c2ccn(-c3nc(C(C)C)ns3)n2)ccc1Cl [Cmpd 104]	100* %	100* %	–	0	100* %	100* %	40	–	–
COC(=O)NCc1cc(-c2ccnc(-c3cccc(C)c3)n2)ccc1Cl [Cmpd 133]	–	–	–	–	–	–	–	–	Percentage Disease Control, Test C (Septoria nodorum; [3]): 93%; Percentage Disease Control, Test A [1, 3]: 94%; Percentage Disease Control, Test H (Alternaria solani; [3]): 0%; Percentage Disease Control, Test F (Botrytis cinerea; [3]): 0%; Percentage Disease Control, Test B [2, 3]: 93%; Percentage Disease Control, Test D (Septoria tritici; 40 ppm (*), 100 = 100% disease control, 0 = no control relative to controls): 92* %
COC(=O)NCc1cc(-c2ccn(CCOc3ccccc3)n2)ccc1Cl [Cmpd 59]	99* %	98* %	87* %	–	100* %	97* %	–	0* %	–
COC(=O)NCc1cc(-c2ccn(Cc3cccc(Cl)c3)n2)ccc1Cl [Cmpd 60]	99* %	98* %	24* %	–	99* %	99* %	–	0* %	–
COC(=O)NCc1cc(-c2ccn(-c3cc(C(F)(F)F)cc(C(F)(F)F)c3)n2)ccc1Cl [Cmpd 78]	0* %	100* %	0* %	–	85* %	90* %	–	33* %	–
COC(=O)NCc1cc(-n2ccc(-c3ccc(Cl)cc3)n2)ccc1Cl [Cmpd 122]	100* %	100* %	97* %	63	100* %	100* %	–	–	–
COC(=O)NCc1cc(-c2cc(C(F)(F)F)[nH]n2)ccc1Cl [Cmpd 100]	–	–	–	0	–	–	0	–	Percentage Disease Control, Test C (Septoria nodorum; 200 ppm): 0%; Percentage Disease Control, Test A ([1]; 200 ppm): 0%; Percentage Disease Control, Test B ([2]; 200 ppm): 0%; Percentage Disease Control, Test D (Septoria tritici; 200 ppm): 40%
COC(=O)NCc1cc(-c2cc(C(F)(F)F)nn2CCC(C)(C)C)ccc1Cl [Cmpd 142]	–	–	–	–	–	–	–	–	Percentage Disease Control, Test C (Septoria nodorum; [3]): 0%; Percentage Disease Control, Test A [1, 3]: 85%; Percentage Disease Control, Test H (Alternaria solani; [3]): 16%; Percentage Disease Control, Test F (Botrytis cinerea; [3]): 0%; Percentage Disease Control, Test B [2, 3]: 55%; Percentage Disease Control, Test D (Septoria tritici; [3]): 92%
COC(=O)NCc1cc(-c2ccn(Cc3cccc(C#N)c3)n2)ccc1Cl [Cmpd 75]	40* %	72* %	61* %	–	93* %	91* %	–	20* %	–
COC(=O)NCc1cc(-c2ccnc(C(F)(F)F)n2)ccc1Cl [Cmpd 138]	–	–	–	–	–	–	–	–	Percentage Disease Control, Test C (Septoria nodorum; [3]): 92%; Percentage Disease Control, Test A [1, 3]: 56%; Percentage Disease Control, Test H (Alternaria solani; [3]): 0%; Percentage Disease Control, Test F (Botrytis cinerea; [3]): 0%; Percentage Disease Control, Test B [2, 3]: 48%; Percentage Disease Control, Test D (Septoria tritici; [3]): 77%
CNC(=O)C(=NOC)c1cc(-c2ccn(-c3cccc(C(F)(F)F)c3)n2)ccc1C [Cmpd 85]	99* %	100* %	–	0	97* %	99* %	86	–	–
COC(=O)NCc1cc(-c2ccn(-c3ccc(Cl)c(C(F)(F)F)c3)n2)ccc1Cl [Cmpd 88]	100* %	95* %	0* %	–	97* %	100* %	–	0* %	–
